How the values were obtained:
HeLa = experiment: Cytotoxicity against human HeLa cells measured after 24 hrs by MTT assay; type: functional, cell-based; parameters: unit not given here
SK-N-SH = experiment: Cytotoxicity against human SK-N-SH cells measured after 24 hrs by MTT assay; type: functional, cell-based
MCF7 [1] = experiment: Cytotoxicity against human MCF7 cells measured after 24 hrs by MTT assay; type: functional, cell-based
A549 = experiment: Cytotoxicity against human A549 cells measured after 24 hrs by MTT assay; type: functional, cell-based
NRK-49F = experiment: Cytotoxicity against rat NRK-49F cells measured after 24 hrs by MTT assay; type: functional, cell-based
MCF7 [2] = experiment: Cell cycle arrest in human MCF7 cells assessed as accumulation at G2/M-phase at 4 uM measured after 24 hrs by propidium iodide staining based flow cytometry (reference value: 13.8%); type: functional
MCF7 [3] = experiment: Cell cycle arrest in human MCF7 cells assessed as accumulation at G2/M-phase at 4 uM measured after 24 hrs by propidium iodide staining based flow cytometry relative to control; type: functional
[4] = Inhibition of goat brain tubulin polymerization; parameters: species or system Capra hircus
MCF7 [5] = experiment: Cell cycle arrest in human MCF7 cells assessed as accumulation at S-phase at 4 uM measured after 24 hrs by propidium iodide staining based flow cytometry (reference value: 14.9%); type: functional
MCF7 [6] = experiment: Cell cycle arrest in human MCF7 cells assessed as accumulation at subG0-phase at 4 uM measured after 24 hrs by propidium iodide staining based flow cytometry (reference value: 13.9%); type: functional
MCF7 [7] = experiment: Cell cycle arrest in human MCF7 cells assessed as accumulation at G1-phase at 4 uM measured after 24 hrs by propidium iodide staining based flow cytometry (reference value: 57%); type: functional

Row | IC50 [4] | SMILES | IC50 (HeLa) | IC50 (SK-N-SH) | IC50 (MCF7 [1]) | IC50 (A549) | IC50 (NRK-49F) | Activity (MCF7 [2]) | fold change (FC) (MCF7 [3]) | Activity (MCF7 [5]) | Activity (MCF7 [6]) | Activity (MCF7 [7])
1 | – | COc1ccc(/C=C(\C#N)C(=O)N/N=C(\C)c2c(O)c3ccc(O)cc3oc2=O)cc1OC | 13.52 | 21.53 µmol | 14.35 µmol | 14.32 µmol | 45.28 µmol | – | – | – | – | –
2 | – | C/C(=N\NC(=O)/C(C#N)=C/c1ccc(Br)cc1)c1c(O)c2ccc(O)cc2oc1=O | 10.56 | 12.05 µmol | 9.85 µmol | 11.43 µmol | 49.64 µmol | – | – | – | – | –
3 | 6.19 µM | C/C(=N\NC(=O)/C(C#N)=C/c1ccc(N(C)C)cc1)c1c(O)c2ccc(O)cc2oc1=O | 5.14 | 6.09 µmol | 3.42 µmol | 4.31 µmol | 53.41 µmol | 45.3% | 4 | 22.6% | 8.5 - 10.6% | 22.7 - 22.8%
4 | – | COc1cc(/C=C(\C#N)C(=O)N/N=C(\C)c2c(O)c3ccc(O)cc3oc2=O)cc(OC)c1OC | 18.46 | 14.61 µmol | 11.34 µmol | 15.32 µmol | 55.34 µmol | – | – | – | – | –
5 | – | C/C(=N\NC(=O)/C(C#N)=C/c1ccccc1Cl)c1c(O)c2ccc(O)cc2oc1=O | 11.78 | 14.02 µmol | 8.88 µmol | 14.23 µmol | 55.89 µmol | – | – | – | – | –
6 | – | C/C(=N\NC(=O)/C(C#N)=C/c1ccccc1[N+](=O)[O-])c1c(O)c2ccc(O)cc2oc1=O | 10.31 | 12.26 µmol | 9.18 µmol | 11.35 µmol | 68.59 µmol | – | – | – | – | –
7 | – | C/C(=N\NC(=O)/C(C#N)=C/c1ccc([N+](=O)[O-])cc1)c1c(O)c2ccc(O)cc2oc1=O | 8.36 | 10.26 µmol | 8.2 µmol | 9.64 µmol | 43.22 µmol | – | – | – | – | –
8 | – | C/C(=N\NC(=O)/C(C#N)=C/c1cccc([N+](=O)[O-])c1)c1c(O)c2ccc(O)cc2oc1=O | 24.64 | 28.26 µmol | 16.35 µmol | 21.9 µmol | 46.53 µmol | – | – | – | – | –
9 | – | C/C(=N\NC(=O)/C(C#N)=C/c1cccc(Br)c1)c1c(O)c2ccc(O)cc2oc1=O | 24.28 | 31.28 µmol | 19.64 µmol | 22.15 µmol | 59.39 µmol | – | – | – | – | –
10 | – | C/C(=N\NC(=O)/C(C#N)=C/c1ccc(O)cc1)c1c(O)c2ccc(O)cc2oc1=O | 6.02 | 8.12 µmol | 7.32 µmol | 6.23 µmol | 61.31 µmol | – | – | – | – | –
11 | – | COc1cc(/C=C(\C#N)C(=O)N/N=C(\C)c2c(O)c3ccc(O)cc3oc2=O)ccc1O | 10.46 | 14.35 µmol | 13.65 µmol | 12.63 µmol | 55.42 µmol | – | – | – | – | –
12 | – | COc1ccc(/C=C(\C#N)C(=O)N/N=C(\C)c2c(O)c3ccc(O)cc3oc2=O)cc1 | 7.85 | 9.46 µmol | 8.94 µmol | 8.15 µmol | 96.1 µmol | – | – | – | – | –
13 | – | C/C(=N\NC(=O)/C(C#N)=C/c1ccccc1)c1c(O)c2ccc(O)cc2oc1=O | 15.75 | 13.52 µmol | 19.22 µmol | 14.82 µmol | 55.45 µmol | – | – | – | – | –
14 | – | COc1cccc2c1C(=O)c1c(O)c3c(c(O)c1C2=O)C[C@@](O)(C(=O)CO)C[C@@H]3O[C@H]1C[C@H](N)[C@H](O)[C@H](C)O1 [DOXORUBICIN] | – | 6.42 µmol | 9.86 µmol | 6.22 µmol | 24.22 µmol | – | – | – | – | –
15 | – | COC(=O)Nc1nc2cc(C(=O)c3cccs3)ccc2[nH]1 [NOCODAZOLE] | – | – | – | – | – | 39.3% | – | 22% | 16.4 - 16.8% | 21.6%

From ChEMBL document CHEMBL4390710, “Synthesis and biological evaluation of novel 4,7-dihydroxycoumarin derivatives as anticancer agents” (Bioorg Med Chem Lett, 2019)
